Measurements as given in patent US20240148709A1, “METHODS OF TREATING EYE PAIN AND EYE DISORDERS” (Aisa Pharma, Inc., priority 2022, published 2024).

Test system: participants with SSc-RP
Assay: Scleroderma Health Assessment Questionnaire (SHAQ), Phase 2a study Part A
Format: in vivo, human
Method: Part A—double-blind, placebo-controlled, parallel-group, dose selection, will assess the safety and efficacy of two doses of cilnidipine (10 mg and 20 mg), alone and in combination with tadalafil. A total of 36 participants will be randomized to one of six prespecified treatment arms. Refer to FIG. 1 for treatment arms in Part A of the study. Dosing last for 12 (±2) days in which participants will self-administer daily doses of assigned treatment in the morning. Each participant will take one capsule and one tablet to blind the active therapy being received.
The standard, validated, patient reported outcome measures tool for SSc patients, the SHAQ, will be collected at the time points specified in the study schedules (FIG. 2 and FIGS. 3A and 3B) to assess the participant's quality of life. The SHAQ includes a Raynaud's VAS that will also be reported separately.
Results: Patients in the study were administered the Scleroderma Health Assessment Questionnaire (SHAQ) at the time of study entry and during clinic visits following the treatment period. The study is a two-part, parallel arm design, prospective, double-blind, randomized study conducted in Australia (Flinders Medical Center). 27 patients were randomized into the first phase of the study, following which a DSMB meeting was held, which reviewed data on the primary study endpoint and key Raynaud's secondary endpoints. Data on the SHAQ was not available for the DSMB to review. The mITT population, in which any data was available post treatment was 24 patients was the analysis population for this first part of the study. The second part (i.e., part B) of the study will randomize 36 patients in a double blind, randomized, prospective, placebo controlled, crossover study. In the first part (i.e., Part A) of the study for which data is presented, patients were randomized into 6 groups, cilnidipine at two doses (10 and 20 mg) alone and in combination with tadalafil 5 mg, tadalafil 5 mg alone, and placebo. […] The DSMB recommended that the study proceed into its double blind prospective cross overpowered second phase and compare cilnidipine 20 mg alone to placebo.

[1] = cilnidipine 10 mg and/or tadalafil 5 mg arms
[2] = cilnidipine 20 mg arms (alone or + tadalafil 5 mg)

COCCOC(=O)C1=C(C)NC(C)=C(C(=O)OC/C=C/c2ccccc2)C1c1cccc([N+](=O)[O-])c1 (stereo not shown) [Cilnidipine, cilnidipine]
SHAQ Visual Analog Scale-Raynaud's, In Clinic Visit (Day 12), Mean (SD) [1]: 1.925 (1.9207) | SHAQ Visual Analog Scale-Raynaud's, In Clinic Visit (Day 12), Median [1]: 1.700 | SHAQ Visual Analog Scale-Raynaud's, In Clinic Visit (Day 12), Min [1]: 0.00 | SHAQ Visual Analog Scale-Raynaud's, In Clinic Visit (Day 12), Q1 [1]: 0.400 | SHAQ Visual Analog Scale-Raynaud's, In Clinic Visit (Day 12), Q3 [1]: 3.450 | SHAQ Visual Analog Scale-Raynaud's, Percent Change from Baseline, Max [1]: 136.4% | SHAQ Visual Analog Scale-Raynaud's, Percent Change from Baseline, Mean (SD) [1]: 11.36 (118.770) % | SHAQ Visual Analog Scale-Raynaud's, Percent Change from Baseline, Median [1]: −2.27% | SHAQ Visual Analog Scale-Raynaud's, Percent Change from Baseline, Min [1]: −100.0% | SHAQ Visual Analog Scale-Raynaud's, Percent Change from Baseline, Q1 [1]: −100.00% | SHAQ alternative disability index, Change from Baseline, Max [1]: 0.38 | SHAQ alternative disability index, Change from Baseline, Mean (SD) [1]: 0.063 (0.2165) | SHAQ alternative disability index, Change from Baseline, Median [1]: 0.000 | SHAQ alternative disability index, Change from Baseline, Min [1]: −0.13 | SHAQ alternative disability index, Change from Baseline, Q1 [1]: −0.063 | SHAQ alternative disability index, Change from Baseline, Q3 [1]: 0.188 | SHAQ alternative disability index, In Clinic Visit (Day 12), Max [1]: 1.25 | SHAQ alternative disability index, In Clinic Visit (Day 12), Mean (SD) [1]: 0.563 (0.6575) | SHAQ alternative disability index, In Clinic Visit (Day 12), Median [1]: 0.500 | SHAQ alternative disability index, In Clinic Visit (Day 12), Min [1]: 0.00 | SHAQ alternative disability index, In Clinic Visit (Day 12), Q1 [1]: 0.000 | SHAQ alternative disability index, In Clinic Visit (Day 12), Q3 [1]: 1.125 | SHAQ alternative disability index, Percent Change from Baseline, Max [1]: 42.9% | SHAQ alternative disability index, Percent Change from Baseline, Mean (SD) [1]: 15.87 (38.161) % | SHAQ alternative disability index, Percent Change from Baseline, Median [1]: 15.87% | SHAQ alternative disability index, Percent Change from Baseline, Min [1]: −11.1% | SHAQ alternative disability index, Percent Change from Baseline, Q1 [1]: −11.11% | SHAQ alternative disability index, Percent Change from Baseline, Q3 [1]: 42.86% | SHAQ Finger Ulcers, Change from Baseline, Max [2]: 0.40 | SHAQ Finger Ulcers, Change from Baseline, Mean (SD) [2]: −0.933 (1.9732) | SHAQ Finger Ulcers, Change from Baseline, Median [2]: 0.000 | SHAQ Finger Ulcers, Change from Baseline, Min [2]: −3.20 | SHAQ Finger Ulcers, Change from Baseline, Q1 [2]: −3.200 | SHAQ Finger Ulcers, Change from Baseline, Q3 [2]: 0.400 | SHAQ Finger Ulcers, In Clinic Visit (Day 12), Max [2]: 1.90 | SHAQ Finger Ulcers, In Clinic Visit (Day 12), Mean (SD) [2]: 0.867 (0.9609) | SHAQ Finger Ulcers, In Clinic Visit (Day 12), Median [2]: 0.700 | SHAQ Finger Ulcers, In Clinic Visit (Day 12), Min [2]: 0.00 | SHAQ Finger Ulcers, In Clinic Visit (Day 12), Q1 [2]: 0.000 | SHAQ Finger Ulcers, In Clinic Visit (Day 12), Q3 [2]: 1.900 | SHAQ Finger Ulcers, Percent Change from Baseline, Max [2]: 133.3% | SHAQ Finger Ulcers, Percent Change from Baseline, Mean (SD) [2]: 35.29 (138.648) % | SHAQ Finger Ulcers, Percent Change from Baseline, Median [2]: 35.29% | SHAQ Finger Ulcers, Percent Change from Baseline, Min [2]: −62.7% | SHAQ Finger Ulcers, Percent Change from Baseline, Q1 [2]: −62.75% | SHAQ Finger Ulcers, Percent Change from Baseline, Q3 [2]: 133.33% | SHAQ Overall Change in Severity, Change from Baseline, Max [2]: −1.50 | SHAQ Overall Change in Severity, Change from Baseline, Median [2]: −1.600 | SHAQ Overall Change in Severity, Change from Baseline, Min [2]: −1.80 | SHAQ Overall Change in Severity, Change from Baseline, Q1 [2]: −1.800 | SHAQ Overall Change in Severity, Change from Baseline, Q3 [2]: −1.500 | SHAQ Overall Change in Severity, In Clinic Visit (Day 12), Max [2]: 1.40 | SHAQ Overall Change in Severity, In Clinic Visit (Day 12), Mean (SD) [2]: 1.033 (0.4726) | SHAQ Overall Change in Severity, In Clinic Visit (Day 12), Median [2]: 1.200 | SHAQ Overall Change in Severity, In Clinic Visit (Day 12), Min [2]: 0.50 | SHAQ Overall Change in Severity, In Clinic Visit (Day 12), Q1 [2]: 0.500 | SHAQ Overall Change in Severity, In Clinic Visit (Day 12), Q3 [2]: 1.400 | SHAQ Overall Change in Severity, Percent Change from Baseline, Max [2]: −51.7% | SHAQ Overall Change in Severity, Percent Change from Baseline, Mean (SD) [2]: −62.64 (12.445) % | SHAQ Overall Change in Severity, Percent Change from Baseline, Median [2]: −60.00% | SHAQ Overall Change in Severity, Percent Change from Baseline, Min [2]: −76.2% | SHAQ Overall Change in Severity, Percent Change from Baseline, Q1 [2]: −76.19% | SHAQ Overall Change in Severity, Percent Change from Baseline, Q3 [2]: −51.72% | SHAQ Standard disability index, Change from Baseline, Max [2]: 0.00 | SHAQ Standard disability index, Change from Baseline, Mean (SD) [2]: −0.125 (0.1250) | SHAQ Standard disability index, Change from Baseline, Median [2]: −0.125 | SHAQ Standard disability index, Change from Baseline, Min [2]: −0.25 | SHAQ Standard disability index, Change from Baseline, Q1 [2]: −0.250 | SHAQ Standard disability index, Change from Baseline, Q3 [2]: 0.000 | SHAQ Standard disability index, In Clinic Visit (Day 12), Max [2]: 0.25 | SHAQ Standard disability index, In Clinic Visit (Day 12), Mean (SD) [2]: 0.125 (0.1250) | SHAQ Standard disability index, In Clinic Visit (Day 12), Median [2]: 0.125 | SHAQ Standard disability index, In Clinic Visit (Day 12), Min [2]: 0.00 | SHAQ Standard disability index, In Clinic Visit (Day 12), Q1 [2]: 0.000 | SHAQ Standard disability index, In Clinic Visit (Day 12), Q3 [2]: 0.250 | SHAQ Standard disability index, Percent Change from Baseline, Max [2]: −33.3% | SHAQ Standard disability index, Percent Change from Baseline, Mean (SD) [2]: −50.00 (23.570) % | SHAQ Standard disability index, Percent Change from Baseline, Median [2]: −50.00% | SHAQ Standard disability index, Percent Change from Baseline, Min [2]: −66.7% | SHAQ Standard disability index, Percent Change from Baseline, Q1 [2]: −66.67% | SHAQ Standard disability index, Percent Change from Baseline, Q3 [2]: −33.33% | SHAQ Visual Analog Scale-Breathing Problems, Change from Baseline, Max [2]: 0.30 | SHAQ Visual Analog Scale-Breathing Problems, Change from Baseline, Median [2]: −0.800 | SHAQ Visual Analog Scale-Breathing Problems, Change from Baseline, Min [2]: −2.00 | SHAQ Visual Analog Scale-Breathing Problems, Change from Baseline, Q1 [2]: −2.000
